Assay results taken from patent publication US20170252298A1, “Performance-Enhancing Nasal Irrigation” (Backed-by-Science, Inc., priority 2014, published 2017).

Test system: nasal cilia
Assay: nasal ciliary beat frequency (CBF), whole field analysis over time
Assay type: cell-based
Parameters: Mean CBF (WFA): unit: Hz
Procedure: The ATP concentration inside the cell is typically 1-10 millimolar (mM). We started with an ATP concentration of 1 mg/ml based on literature data and from testing done by Dr. James Palmer at University of Pennsylvania on ATP concentration for increasing nasal ciliary beat frequency. […] 1 mg/ml from the below charts=1 mg/ml=1 gram per liter=1/507 g/mol=2 mM. Most intracellular ATP concentrations in animals fall within the range of 0.5-10 mM. [table]

[1] = Plate 2, elapsed 0:08:10, ATP 1 mg/ml
[2] = Plate 2, elapsed 0:08:20, ATP 1 mg/ml
[3] = Plate 2, elapsed 0:08:30, ATP 1 mg/ml
[4] = Plate 2, elapsed 0:08:40, ATP 1 mg/ml
[5] = Plate 2, elapsed 0:08:50, ATP 1 mg/ml
[6] = Plate 2, elapsed 0:09:00, ATP 1 mg/ml
[7] = Plate 2, elapsed 0:09:10, ATP 1 mg/ml
[8] = Plate 2, elapsed 0:09:20, ATP 1 mg/ml
[9] = Plate 2, elapsed 0:09:30, ATP 1 mg/ml
[10] = Plate 2, elapsed 0:09:40, ATP 1 mg/ml
[11] = Plate 2, elapsed 0:09:50, ATP 1 mg/ml
[12] = Plate 2, elapsed 0:10:00, ATP 1 mg/ml
[13] = Plate 2, elapsed 0:10:10, ATP 1 mg/ml
[14] = Plate 2, elapsed 0:10:20, ATP 1 mg/ml
[15] = Plate 2, elapsed 0:10:30, ATP 1 mg/ml
[16] = Plate 2, elapsed 0:10:40, ATP 1 mg/ml
[17] = Plate 2, elapsed 0:10:50, ATP 1 mg/ml
[18] = Plate 2, elapsed 0:11:00, ATP 1 mg/ml
[19] = Plate 2, elapsed 0:11:10, ATP 1 mg/ml
[20] = Plate 2, elapsed 0:15:10, ATP 1 mg/ml
[21] = Plate 2, elapsed 0:15:20, ATP 1 mg/ml
[22] = Plate 2, elapsed 0:15:30, ATP 1 mg/ml
[23] = Plate 2, elapsed 0:15:40, ATP 1 mg/ml
[24] = Plate 2, elapsed 0:15:50, ATP 1 mg/ml
[25] = Plate 2, elapsed 0:16:00, ATP 1 mg/ml
[26] = Plate 2, elapsed 0:16:10, ATP 1 mg/ml
[27] = Plate 2, elapsed 0:16:20, ATP 1 mg/ml
[28] = Plate 2, elapsed 0:16:30, ATP 1 mg/ml
[29] = Plate 2, elapsed 0:16:40, ATP 1 mg/ml
[30] = Plate 2, elapsed 0:16:50, ATP 1 mg/ml
[31] = Plate 2, elapsed 0:17:00, ATP 1 mg/ml
[32] = Plate 2, elapsed 0:17:10, ATP 1 mg/ml
[33] = Plate 2, elapsed 0:17:20, ATP 1 mg/ml
[34] = Plate 2, elapsed 0:17:30, ATP 1 mg/ml
[35] = Plate 2, elapsed 0:17:40, ATP 1 mg/ml
[36] = Plate 2, elapsed 0:17:50, ATP 1 mg/ml
[37] = Plate 2, elapsed 0:18:00, ATP 1 mg/ml
[38] = Plate 2, elapsed 0:18:10, ATP 1 mg/ml
[39] = Plate 2, elapsed 0:18:20, ATP 1 mg/ml
[40] = Plate 2, elapsed 0:18:30, ATP 1 mg/ml
[41] = Plate 2, elapsed 0:18:40, ATP 1 mg/ml
[42] = Plate 2, elapsed 0:18:50, ATP 1 mg/ml
[43] = Plate 2, elapsed 0:19:00, ATP 1 mg/ml
[44] = Plate 2, elapsed 0:19:10, ATP 1 mg/ml
[45] = Plate 2, elapsed 0:19:20, ATP 1 mg/ml
[46] = Plate 2, elapsed 0:19:30, ATP 1 mg/ml
[47] = Plate 2, elapsed 0:19:40, ATP 1 mg/ml
[48] = Plate 2, elapsed 0:19:50, ATP 1 mg/ml
[49] = Plate 2, elapsed 0:20:00, ATP 1 mg/ml

`Nc1ncnc2c1ncn2[C@@H]1O[C@H](COP(=O)(O)OP(=O)(O)OP(=O)(O)O)[C@@H](O)[C@H]1O` [ATP, adenosine triphosphate] was tested, and the “Active Area” value [1] was 37.97%, the “Mean CBF (WFA)” value [1] was 8.3 and the “Active Area” value [2] was 38.66%. The “Mean CBF (WFA)” value [2] was 8.29, the “Active Area” value [3] was 39% and the “Mean CBF (WFA)” value [3] was 8.27. For the same compound, the “Active Area” value [4] was 36.32%, the “Mean CBF (WFA)” value [4] was 8.33 and the “Active Area” value [5] was 39.05%. The “Mean CBF (WFA)” value [5] was 8.36, the “Active Area” value [6] was 37.12% and the “Mean CBF (WFA)” value [6] was 8.36. For the same compound, the “Active Area” value [7] was 38.83%, the “Mean CBF (WFA)” value [7] was 8.31 and the “Active Area” value [8] was 38.39%. The “Mean CBF (WFA)” value [8] was 8.31, the “Active Area” value [9] was 37.54% and the “Mean CBF (WFA)” value [9] was 8.37. For the same compound, the “Active Area” value [10] was 36.11%, the “Mean CBF (WFA)” value [10] was 8.42 and the “Active Area” value [11] was 35.79%. The “Mean CBF (WFA)” value [11] was 8.4, the “Active Area” value [12] was 36.58% and the “Mean CBF (WFA)” value [12] was 8.44. For the same compound, the “Active Area” value [13] was 36.77%, the “Mean CBF (WFA)” value [13] was 8.49 and the “Active Area” value [14] was 37.58%. The “Mean CBF (WFA)” value [14] was 8.39, the “Active Area” value [15] was 37.33% and the “Mean CBF (WFA)” value [15] was 8.41. For the same compound, the “Active Area” value [16] was 37.82%, the “Mean CBF (WFA)” value [16] was 8.41 and the “Active Area” value [17] was 35.58%. The “Mean CBF (WFA)” value [17] was 8.37, the “Active Area” value [18] was 38.06% and the “Mean CBF (WFA)” value [18] was 8.43. For the same compound, the “Active Area” value [19] was 38.67%, the “Mean CBF (WFA)” value [19] was 8.42 and the “Active Area” value [20] was 41.31%. For the same compound, the “Mean CBF (WFA)” value [20] was 8.44, the “Active Area” value [21] was 41.96% and the “Mean CBF (WFA)” value [21] was 8.48. For the same compound, the “Active Area” value [22] was 39.32%, the “Mean CBF (WFA)” value [22] was 8.43 and the “Active Area” value [23] was 39.9%. For the same compound, the “Mean CBF (WFA)” value [23] was 8.44, the “Active Area” value [24] was 40.84% and the “Mean CBF (WFA)” value [24] was 8.41. The “Active Area” value [25] was 41.99%, the “Mean CBF (WFA)” value [25] was 8.36 and the “Active Area” value [26] was 42.7%. The “Mean CBF (WFA)” value [26] was 8.37, the “Active Area” value [27] was 43.14% and the “Mean CBF (WFA)” value [27] was 8.39. For the same compound, the “Active Area” value [28] was 42.52%, the “Mean CBF (WFA)” value [28] was 8.36 and the “Active Area” value [29] was 42.09%. For the same compound, the “Mean CBF (WFA)” value [29] was 8.38, the “Active Area” value [30] was 42.85% and the “Mean CBF (WFA)” value [30] was 8.33. The “Active Area” value [31] was 38.98%, the “Mean CBF (WFA)” value [31] was 8.32 and the “Active Area” value [32] was 41.85%. The “Mean CBF (WFA)” value [32] was 8.27, the “Active Area” value [33] was 41.7% and the “Mean CBF (WFA)” value [33] was 8.24. The “Active Area” value [34] was 42.78%, the “Mean CBF (WFA)” value [34] was 8.29 and the “Active Area” value [35] was 40.85%. The “Mean CBF (WFA)” value [35] was 8.32, the “Active Area” value [36] was 42.27% and the “Mean CBF (WFA)” value [36] was 8.27. The “Active Area” value [37] was 38.92%, the “Mean CBF (WFA)” value [37] was 8.27 and the “Active Area” value [38] was 40.18%. The “Mean CBF (WFA)” value [38] was 8.29, the “Active Area” value [39] was 42.69% and the “Mean CBF (WFA)” value [39] was 8.27. For the same compound, the “Active Area” value [40] was 42.91%, the “Mean CBF (WFA)” value [40] was 8.27 and the “Active Area” value [41] was 41.71%. The “Mean CBF (WFA)” value [41] was 8.24, the “Active Area” value [42] was 42.85% and the “Mean CBF (WFA)” value [42] was 8.28. For the same compound, the “Active Area” value [43] was 43.3%, the “Mean CBF (WFA)” value [43] was 8.24 and the “Active Area” value [44] was 42.12%. For the same compound, the “Mean CBF (WFA)” value [44] was 8.22, the “Active Area” value [45] was 42.33% and the “Mean CBF (WFA)” value [45] was 8.25. The “Active Area” value [46] was 43.77%, the “Mean CBF (WFA)” value [46] was 8.23 and the “Active Area” value [47] was 44.6%. For the same compound, the “Mean CBF (WFA)” value [47] was 8.25, the “Active Area” value [48] was 43.27% and the “Mean CBF (WFA)” value [48] was 8.24. For the same compound, the “Active Area” value [49] was 43.87%, the “Mean CBF (WFA)” value [49] was 8.26 and the “ATP concentration sufficient to give an increase in ciliary beat frequency” value (testing by Dr. James Palmer, University of Pennsylvania) was 1 mg/mL.
